Experimental data: patent publication US4205163A, “Tylosin derivatives” (Sanraku-Ocean Co., Ltd., priority 1977, dated 1980)
In brackets after ≈: the same amount, converted by molar mass.

Experiments:
Experiment in all cases: antimicrobial activity, broth dilution method
Type in all cases: cell-based
[1] = tested on: Staphylococcus aureus MS-8710; conditions: for MIC: Staphylococcus aureus, MS8710, Staphylococcus aureus MS-8710, drug-resistant clinical isolate, read-out: minimum inhibitory concentration (MIC)
Description: (§1) Antimicrobial activity of the new antibiotics according to the present invention was measured on various pathogenic microorganisms by the broth dilution mehtod. Tab. […] The new antibiotics show a similar antimicrobial spectrum to that of tylosin as shown in Tab. 4. All the compounds have an excellent antimicrobial activity mainly on gram-positive bacteria. […] Test microorganisms with an asterisk mark (*) in Tab. 4 are all drug-resistant strains that were clinically isolated. More in detail, Staphylococcus aureus MS-8710 is resistant to tylosin, penicillin, tetracycline, erythromycin and leucomycin. Staphylococcus aureus MS-9931 is resistant to tylosin, penicillin, erythromycin, tetracycline, leucomycin, spiramycin and josamycin. And also Streptococcus piogenes is resistant to tylosin, erythromycin, oleandomycin and leucomycin.

[2] = tested on: Bacillus cereus ATCC 9634; conditions: broth dilution; for MIC: Bacillus cereus, ATCC9634, Bacillus cereus ATCC 9634, read-out: minimum inhibitory concentration (MIC)
Description: as §1

Sarcina lutea ATCC 9341 = conditions: for MIC: Micrococcus luteus, ATCC9341, Sarcina lutea ATCC 9341, read-out: minimum inhibitory concentration (MIC)
Description: as §1

[3] = tested on: Staphylococcus aureus MS-9931; conditions: Staphylococcus aureus MS-9931, drug-resistant clinical isolate; for MIC: MS9931, read-out: minimum inhibitory concentration (MIC)
Description: as §1

[4] = tested on: Staphylococcus aureus FDA-209P; conditions: Staphylococcus aureus FDA-209P, broth dilution; for MIC: Staphylococcus aureus, FDA209P, read-out: minimum inhibitory concentration (MIC)
Description: as §1

[5] = tested on: Staphylococcus aureus MS-9937; conditions: Staphylococcus aureus MS-9937, drug-resistant clinical isolate; for MIC: MS9937, read-out: minimum inhibitory concentration (MIC)
Description: as §1

[6] = tested on: Staphylococcus aureus SMITH; conditions: Staphylococcus aureus SMITH, broth dilution; for MIC: Staphylococcus aureus, read-out: minimum inhibitory concentration (MIC)
Description: as §1

[7] = tested on: Streptococcus pyogenes MH-771; conditions: for MIC: Streptococcus pyogenes, MH771, Streptococcus pyogenes MH-771, drug-resistant clinical isolate, read-out: minimum inhibitory concentration (MIC)
Description: as §1

| Compound | MIC [1] | MIC [2] | MIC (Sarcina lutea ATCC 9341) | MIC [3] | MIC [4] | MIC [5] | MIC [6] | MIC [7] | minimum inhibitory concentration (MIC) ([1]; Staphylococcus aureus MS-8710, drug-resistant clinical isolate) | minimum inhibitory concentration (MIC) ([2]; Bacillus cereus ATCC 9634) | minimum inhibitory concentration (MIC) (Sarcina lutea ATCC 9341; Sarcina lutea ATCC 9341) | minimum inhibitory concentration (MIC) [3] | minimum inhibitory concentration (MIC) [4] | minimum inhibitory concentration (MIC) [5] | minimum inhibitory concentration (MIC) [6] | minimum inhibitory concentration (MIC) ([7]; Streptococcus pyogenes MH-771, drug-resistant clinical isolate) |
| --- | --- | --- | --- | --- | --- | --- | --- | --- | --- | --- | --- | --- | --- | --- | --- | --- |
| CCCC(C)C(=O)OC1C(C)OC(OC2C(C)OC(OC3C(CC=O)CC(C)C(=O)C=CC(C)=CC(COC4OC(C)C(O)C(OC)C4OC)C(CC)OC(=O)CC(O)C3C)C(O)C2N(C)C)CC1(C)O (stereo not drawn) [Compound 12, 4"-α-methyl-n-valeryltylosin] | 25 µg/mL (≈ 24.6 µM) | 0.78 µg/mL (≈ 0.769 µM) | 0.39 µg/mL (≈ 0.385 µM) | 100 µg/mL (≈ 98.6 µM) | 1.56 µg/mL (≈ 1.54 µM) | 25 µg/mL (≈ 24.6 µM) | 1.56 µg/mL (≈ 1.54 µM) | 6.25 µg/mL (≈ 6.16 µM) |  |  |  |  |  |  |  |  |
| CCC1OC(=O)CC(O)C(C)C(OC2OC(C)C(OC3CC(C)(O)C(O)C(C)O3)C(N(C)C)C2OC(C)=O)C(CC=O)CC(C)C(=O)C=CC(C)=CC1COC1OC(C)C(OC(=O)C(Cl)(Cl)Cl)C(OC)C1OC (stereo not shown) [Compound 2, 2'-acetyl-4'"-trichloroacetyltylosin] | 200 µg/mL (≈ 181 µM) | 1.56 µg/mL (≈ 1.41 µM) | 0.39 µg/mL (≈ 0.353 µM) | 100 µg/mL (≈ 90.6 µM) | 1.56 µg/mL (≈ 1.41 µM) | 100 µg/mL (≈ 90.6 µM) | 1.56 µg/mL (≈ 1.41 µM) | 200 µg/mL (≈ 181 µM) |  |  |  |  |  |  |  |  |
| CCC1OC(=O)CC(O)C(C)C(OC2OC(C)C(OC3CC(C)(O)C(O)C(C)O3)C(N(C)C)C2OC(C)=O)C(CC=O)CC(C)C(=O)C=CC(C)=CC1COC1OC(C)C(O)C(OC)C1OC (stereo not shown) [2'-acetyltylosin, reference compound] | > 200 µg/mL | 1.56 µg/mL (≈ 1.63 µM) | 0.39 µg/mL (≈ 0.407 µM) | 200 µg/mL (≈ 209 µM) | 1.56 µg/mL (≈ 1.63 µM) | 200 µg/mL (≈ 209 µM) | 1.56 µg/mL (≈ 1.63 µM) | > 200 µg/mL |  |  |  |  |  |  |  |  |
| CCC1OC(=O)CC(O)C(C)C(OC2OC(C)C(OC3CC(C)(O)C(OC(=O)Cc4ccc([N+](=O)[O-])cc4)C(C)O3)C(N(C)C)C2O)C(CC=O)CC(C)C(=O)C=CC(C)=CC1COC1OC(C)C(O)C(OC)C1OC (stereo not shown) [Compound 14, 4"-(4-nitrophenyl)acetyltylosin] | 6.25 µg/mL (≈ 5.79 µM) | 0.39 µg/mL (≈ 0.361 µM) | 0.19 µg/mL (≈ 0.176 µM) | 6.25 µg/mL (≈ 5.79 µM) | 0.39 µg/mL (≈ 0.361 µM) | 6.25 µg/mL (≈ 5.79 µM) | 0.39 µg/mL (≈ 0.361 µM) | 3.13 µg/mL (≈ 2.9 µM) |  |  |  |  |  |  |  |  |
| CCC1OC(=O)CC(O)C(C)C(OC2OC(C)C(OC3CC(C)(O)C(OC(=O)CCSc4ccccc4)C(C)O3)C(N(C)C)C2O)C(CC=O)CC(C)C(=O)C=CC(C)=CC1COC1OC(C)C(O)C(OC)C1OC (stereo not drawn) [Compound 39, 4"-β-phenylthiopropionyltylosin] | 12.5 µg/mL (≈ 11.6 µM) | 0.39 µg/mL (≈ 0.361 µM) | 0.19 µg/mL (≈ 0.176 µM) | 12.5 µg/mL (≈ 11.6 µM) | 0.78 µg/mL (≈ 0.722 µM) | 12.5 µg/mL (≈ 11.6 µM) | 0.39 µg/mL (≈ 0.361 µM) | 6.25 µg/mL (≈ 5.79 µM) |  |  |  |  |  |  |  |  |
| CCC1OC(=O)CC(O)C(C)C(OC2OC(C)C(OC3CC(C)(O)C(OC(=O)C(C)Oc4ccccc4)C(C)O3)C(N(C)C)C2O)C(CC=O)CC(C)C(=O)C=CC(C)=CC1COC1OC(C)C(O)C(OC)C1OC (stereo not drawn) [Compound 46, 4"-α-phenoxypropionyltylosin] | 25 µg/mL (≈ 23.5 µM) | 0.39 µg/mL (≈ 0.366 µM) | 0.19 µg/mL (≈ 0.179 µM) | 25 µg/mL (≈ 23.5 µM) | 0.78 µg/mL (≈ 0.733 µM) | 50 µg/mL (≈ 47 µM) | 0.39 µg/mL (≈ 0.366 µM) | 12.5 µg/mL (≈ 11.7 µM) |  |  |  |  |  |  |  |  |
| CCCCCC(=O)OC1C(C)OC(OC2C(C)OC(OC3C(CC=O)CC(C)C(=O)C=CC(C)=CC(COC4OC(C)C(O)C(OC)C4OC)C(CC)OC(=O)CC(OC(C)=O)C3C)C(O)C2N(C)C)CC1(C)O (stereo not shown) [Compound 8, 3-acetyl-4"-n-caproyl(or n-hexanoyl)tylosin] | 25 µg/mL (≈ 23.7 µM) | 0.78 µg/mL (≈ 0.738 µM) | 0.39 µg/mL (≈ 0.369 µM) | 25 µg/mL (≈ 23.7 µM) | 0.39 µg/mL (≈ 0.369 µM) | 25 µg/mL (≈ 23.7 µM) | 0.78 µg/mL (≈ 0.738 µM) | 6.25 µg/mL (≈ 5.92 µM) |  |  |  |  |  |  |  |  |
| 3-acetyl-4"-(1-imidazolyl)propionyltylosin [Compound 33] |  |  |  |  |  |  |  |  | 25 µg/mL | 1.56 µg/mL | 0.78 µg/mL | 50 µg/mL | 1.56 µg/mL | 50 µg/mL | 1.56 µg/mL | 12.5 µg/mL |
| CCC1OC(=O)CC(OC(C)=O)C(C)C(OC2OC(C)C(OC3CC(C)(O)C(OC(=O)C(O)Cc4ccccc4)C(C)O3)C(N(C)C)C2O)C(CC=O)CC(C)C(=O)C=CC(C)=CC1COC1OC(C)C(O)C(OC)C1OC [Compound 26, 3-acetyl-4"-L-[(α-hydroxy-β-phenyl)propionyl]tylosin] | 50 µg/mL (≈ 45.2 µM) | 0.78 µg/mL (≈ 0.705 µM) | 0.39 µg/mL (≈ 0.353 µM) | 50 µg/mL (≈ 45.2 µM) | 0.78 µg/mL (≈ 0.705 µM) | 50 µg/mL (≈ 45.2 µM) | 0.78 µg/mL (≈ 0.705 µM) | 12.5 µg/mL (≈ 11.3 µM) |  |  |  |  |  |  |  |  |
| CCC1OC(=O)CC(OC(C)=O)C(C)C(OC2OC(C)C(OC3CC(C)(O)C(OC(=O)Cc4cccnc4)C(C)O3)C(N(C)C)C2O)C(CC=O)CC(C)C(=O)C=CC(C)=CC1COC1OC(C)C(O)C(OC)C1OC (stereo not shown) [Compound 31, 3-acetyl-4"-(3-pyridyl)acetyltylosin] | 12.5 µg/mL (≈ 11.6 µM) | 0.39 µg/mL (≈ 0.362 µM) | 0.19 µg/mL (≈ 0.176 µM) | 12.5 µg/mL (≈ 11.6 µM) | 0.39 µg/mL (≈ 0.362 µM) | 12.5 µg/mL (≈ 11.6 µM) | 0.39 µg/mL (≈ 0.362 µM) | 6.25 µg/mL (≈ 5.8 µM) |  |  |  |  |  |  |  |  |
| CCC1OC(=O)CC(OC(C)=O)C(C)C(OC2OC(C)C(OC3CC(C)(O)C(OC(=O)C(O)c4ccccc4)C(C)O3)C(N(C)C)C2O)C(CC=O)CC(C)C(=O)C=CC(C)=CC1COC1OC(C)C(O)C(OC)C1OC [Compound 18, 3-acetyl-4"-L-(α-hydroxyphenylacetyl)tylosin] | 25 µg/mL (≈ 22.9 µM) | 0.78 µg/mL (≈ 0.714 µM) | 0.39 µg/mL (≈ 0.357 µM) |  | 0.78 µg/mL (≈ 0.714 µM) |  | 0.78 µg/mL (≈ 0.714 µM) |  |  |  |  |  |  |  |  |  |
| CCC1OC(=O)CC(O)C(C)C(OC2OC(C)C(OC3CC(C)(O)C(OC(=O)CSc4ccc(Cl)cc4)C(C)O3)C(N(C)C)C2O)C(CC=O)CC(C)C(=O)C=CC(C)=CC1COC1OC(C)C(O)C(OC)C1OC (stereo not shown) [Compound 37, 4"-(4-chlorophenyl)thioacetyltylosin] | 12.5 µg/mL (≈ 11.4 µM) | 0.78 µg/mL (≈ 0.709 µM) | 0.19 µg/mL (≈ 0.173 µM) | 6.25 µg/mL (≈ 5.68 µM) | 0.39 µg/mL (≈ 0.354 µM) | 6.25 µg/mL (≈ 5.68 µM) | 0.39 µg/mL (≈ 0.354 µM) | 3.13 µg/mL (≈ 2.84 µM) |  |  |  |  |  |  |  |  |
| CCC1OC(=O)CC(OC(C)=O)C(C)C(OC2OC(C)C(OC3CC(C)(O)C(OC(=O)CCc4ccccc4)C(C)O3)C(N(C)C)C2O)C(CC=O)CC(C)C(=O)C=CC(C)=CC1COC1OC(C)C(O)C(OC)C1OC (stereo not drawn) [Compound 25, 3-acetyl-4"-β-phenylpropionyltylosin] | 50 µg/mL (≈ 45.9 µM) | 0.78 µg/mL (≈ 0.715 µM) | 0.39 µg/mL (≈ 0.358 µM) | 50 µg/mL (≈ 45.9 µM) | 1.56 µg/mL (≈ 1.43 µM) | 50 µg/mL (≈ 45.9 µM) | 0.78 µg/mL (≈ 0.715 µM) | 25 µg/mL (≈ 22.9 µM) |  |  |  |  |  |  |  |  |
| CCC1OC(=O)CC(O)C(C)C(OC2OC(C)C(OC3CC(C)(O)C(OC(=O)CSc4ccc(C)cc4)C(C)O3)C(N(C)C)C2O)C(CC=O)CC(C)C(=O)C=CC(C)=CC1COC1OC(C)C(O)C(OC)C1OC (stereo not shown) [Compound 35, 4"-(4-methylphenyl)thioacetyltylosin] | 25 µg/mL (≈ 23.1 µM) | 1.56 µg/mL (≈ 1.44 µM) | 0.78 µg/mL (≈ 0.722 µM) | 25 µg/mL (≈ 23.1 µM) | 1.56 µg/mL (≈ 1.44 µM) | 50 µg/mL (≈ 46.3 µM) | 1.56 µg/mL (≈ 1.44 µM) | 12.5 µg/mL (≈ 11.6 µM) |  |  |  |  |  |  |  |  |
